{"source": "patent US20010009931A1", "about": "“Protective varnish for dentin” (priority 1997, published 2001)", "key": {"[1]": {"assay": "Leaching test of cured plaques in artificial saliva (Ringer solution), UV/Vis spectroscopy", "type": "physicochemical", "procedure": "These plaques were light-cured and stored in artificial saliva (Ringer solution) for 20 days at 37° C. By UV/Vis spectroscopy, no triclosan could be found in the artificial saliva.\nAgain, plaques were made from a mixture of the varnish components except for the solvent ethanol. These plaques were light-cured and stored in artificial saliva (Ringer solution) for 14 days at 37° C. By UV/Vis spectroscopy, some triclosan could be found in the artificial saliva."}, "bacteria": {"tested_on": "bacteria", "conditions": "long-term experiments; cited from earlier work"}}}
{"smiles": "Oc1cc(Cl)ccc1Oc1ccc(Cl)cc1Cl", "note": "[triclosan, 2,4,4′-trichloro-2′-hydroxydiphenyl ether]", "values": [{"measurement": "triclosan embedded in the plaque leached out", "setting": "[1]; plaque with 6.25 wt % triclosan based on resin mixture, 20 days at 37° C.", "result": "less than 0.1 wt %"}, {"measurement": "leaching of the overall triclosan content of the plaque", "setting": "[1]; plaque with 40 wt % triclosan, 14 days at 37° C.", "result": 0.2, "unit": "wt %"}, {"measurement": "development of bacterial resistance", "setting": "bacteria", "result": "no development of bacterial resistance"}]}
